Patent US20160220573A1, “COMBINATION THERAPIES FOR TREATING CANCERS” (Gilead Sciences, Inc., priority 2015, published 2016)

Test system: CLL cells
Experiment: Human CLL Apoptosis Assay
Type: cell-based
Details: without HS-5 co-culture
Description: Peripheral blood mononuclear cells (PBMCs) were isolated from primary chronic lymphocytic leukemia (CLL) patients and cultured for 3-5 hours in Lymphocyte Growth Medium (LGM, RPMI 1640, 1 mM Sodium Pyruvate, 10 mM HEPES, pH 7.4, 100 U/mL Penicillin/100 μg/mL Streptomycin, 55 μM β-Mercaptoethanl, 2 mM GlutaMAX, and 10% FBS) at 37° C. with 5% CO2. Cells were then centrifuged at room temperature for 10 minutes and resuspended in an appropriate volume of LGM for plating (maximum cell density=3.12×10^6/ml). Final assay wells were set up in U-bottom 96-well tissue culture plates with HS-5 co-culture (plates were coated with 3×10^4 HS-5 cells in 100 μl overnight at 37° C. prior to the assay) or no co-culture.
Cell suspensions (80 μL, 2.5×10^5-9.4×10^4) were added to the plate and incubated for 1 hour prior to stimulation with αIgM/αIgG (7.8 μg/well) and αCD40 (4 μg/well). Cells were incubated with compounds for about 66 hours at 37° C. After incubation, the cells were transferred to deeper plates and washed once with 500 μL of 1×PBS^+/+. Cells were resuspended in Invitrogen's aqua Live/Dead reagent according to manufacturer's directions and incubated 30 minutes on ice. Aqua Live/Dead was quenched with an equal volume of PBS^+/+ with 4% FBS (FACS buffer). Cells were centrifuged and labeled with αCD5^−PE, αCD19-BV421 and AnnexinV-APC in a total volume of […] and incubated 30 minutes on ice. After labeling, cells were rinsed twice in FACS buffer and then fixed with BD Fixation buffer for 30 minutes on ice. Cells were rinsed twice with FACS buffer and analyzed.
For the apoptosis analysis, flow cytometric sampling of 5000-20,000 total events were collected on a BD FACS Canto II instrument using a high throughput screen (HTS) autosampler for analysis of apoptosis. CD5^+/CD19^+ cells were identified and subsequently gated for AnnexinV^+/LiveDead and AnnexinV^+/LiveDead^+ populations.
Flow cytometric data were extracted to a flow cytometry standard (fcs) file. Average percentages of AnnexinV^+ cells were determined for the positive control and negative wells (no compound). The percentage of AnnexinV^+ cells represented the percentage or levels of apoptosis. Similar results were obtained for CLL cells with HS-5 co-culture.

Compound: CC1(C)CCC(CN2CCN(c3ccc(C(=O)NS(=O)(=O)c4ccc(NCC5CCOCC5)c([N+](=O)[O-])c4)c(Oc4cnc5[nH]ccc5c4)c3)CC2)=C(c2ccc(Cl)cc2)C1 [Compound B1]
- Percentage of the AnnexinV^+ cells from CLL patients (Sample 1, 0.8 nM Compound B1, 0 nM Compound A1): 13%
- Percentage of the AnnexinV^+ cells from CLL patients (Sample 1, 1.6 nM Compound B1, 0 nM Compound A1): 15%
- Percentage of the AnnexinV^+ cells from CLL patients (Sample 1, 3.1 nM Compound B1, 0 nM Compound A1): 15%
- Percentage of the AnnexinV^+ cells from CLL patients (Sample 1, 6.3 nM Compound B1, 0 nM Compound A1): 16%
- Percentage of the AnnexinV^+ cells from CLL patients (Sample 1, 12.5 nM Compound B1, 0 nM Compound A1): 19%
- Percentage of the AnnexinV^+ cells from CLL patients (Sample 1, 25 nM Compound B1, 0 nM Compound A1): 24%
- Percentage of the AnnexinV^+ cells from CLL patients (Sample 1, 50 nM Compound B1, 0 nM Compound A1): 31%
- Percentage of the AnnexinV^+ cells from CLL patients (Sample 1, 100 nM Compound B1, 0 nM Compound A1): 36%
- Percentage of the AnnexinV^+ cells from CLL patients (Sample 1, 200 nM Compound B1, 0 nM Compound A1): 46%
- Percentage of the AnnexinV^+ cells from CLL patients (Sample 2, 0.8 nM Compound B1, 0 nM Compound A1): 10%
- Percentage of the AnnexinV^+ cells from CLL patients (Sample 2, 1.6 nM Compound B1, 0 nM Compound A1): 18%
- Percentage of the AnnexinV^+ cells from CLL patients (Sample 2, 3.1 nM Compound B1, 0 nM Compound A1): 35%
- Percentage of the AnnexinV^+ cells from CLL patients (Sample 2, 6.3 nM Compound B1, 0 nM Compound A1): 55%
- Percentage of the AnnexinV^+ cells from CLL patients (Sample 2, 12.5 nM Compound B1, 0 nM Compound A1): 76%
- Percentage of the AnnexinV^+ cells from CLL patients (Sample 2, 25 nM Compound B1, 0 nM Compound A1): 89%
- Percentage of the AnnexinV^+ cells from CLL patients (Sample 2, 50 nM Compound B1, 0 nM Compound A1): 93%
- Percentage of the AnnexinV^+ cells from CLL patients (Sample 2, 100 nM Compound B1, 0 nM Compound A1): 95%
- Percentage of the AnnexinV^+ cells from CLL patients (Sample 2, 200 nM Compound B1, 0 nM Compound A1): 97%
- Percentage of the AnnexinV^+ cells from CLL patients (Sample 3, 0.8 nM Compound B1, 0 nM Compound A1): 16%
- Percentage of the AnnexinV^+ cells from CLL patients (Sample 3, 1.6 nM Compound B1, 0 nM Compound A1): 21%
- Percentage of the AnnexinV^+ cells from CLL patients (Sample 3, 3.1 nM Compound B1, 0 nM Compound A1): 33%
- Percentage of the AnnexinV^+ cells from CLL patients (Sample 3, 6.3 nM Compound B1, 0 nM Compound A1): 50%
- Percentage of the AnnexinV^+ cells from CLL patients (Sample 3, 12.5 nM Compound B1, 0 nM Compound A1): 69%
- Percentage of the AnnexinV^+ cells from CLL patients (Sample 3, 25 nM Compound B1, 0 nM Compound A1): 89%
- Percentage of the AnnexinV^+ cells from CLL patients (Sample 3, 50 nM Compound B1, 0 nM Compound A1): 97%
- Percentage of the AnnexinV^+ cells from CLL patients (Sample 3, 100 nM Compound B1, 0 nM Compound A1): 99%
- Percentage of the AnnexinV^+ cells from CLL patients (Sample 3, 200 nM Compound B1, 0 nM Compound A1): 100%

Compound: c1cn2cc(-c3ccc4cn[nH]c4c3)nc(Nc3ccc(N4CCOCC4)cc3)c2n1 [Compound A1, 6-(1H-indazol-6-yl)-N-(4-morpholinophenyl)imidazo[1,2-a]pyrazin-8-amine]
- Percentage of the AnnexinV^+ cells from CLL patients (Sample 1, 0 nM Compound B1, 30 nM Compound A1): 12%
- Percentage of the AnnexinV^+ cells from CLL patients (Sample 1, 0 nM Compound B1, 100 nM Compound A1): 12%
- Percentage of the AnnexinV^+ cells from CLL patients (Sample 1, 0 nM Compound B1, 300 nM Compound A1): 16%
- Percentage of the AnnexinV^+ cells from CLL patients (Sample 2, 0 nM Compound B1, 30 nM Compound A1): 9%
- Percentage of the AnnexinV^+ cells from CLL patients (Sample 2, 0 nM Compound B1, 100 nM Compound A1): 12%
- Percentage of the AnnexinV^+ cells from CLL patients (Sample 2, 0 nM Compound B1, 300 nM Compound A1): 20%
- Percentage of the AnnexinV^+ cells from CLL patients (Sample 3, 0 nM Compound B1, 30 nM Compound A1): 13%
- Percentage of the AnnexinV^+ cells from CLL patients (Sample 3, 0 nM Compound B1, 100 nM Compound A1): 15%
- Percentage of the AnnexinV^+ cells from CLL patients (Sample 3, 0 nM Compound B1, 300 nM Compound A1): 18%
